Measurements: the NIST ThermoML archive (doi:10.1021/je2000205)
± gives the expanded uncertainty stated by the source.

Test: mn = molality of the nth substance listed, in mol/kg
Conditions: 100 kPa, Liquid; for viscosity: Capillary tube (Ostwald / Ubbelohde) method; for speed of sound: Sing-around technique in a fixed-path interferometer; for mass density: Vibrating tube method

SMILES | viscosity (298.15 K, m1 = 1.13) [mPa·s] | speed of sound (298.15 K, m1 = 1.13) [m/s] | viscosity (303.15 K, m1 = 1.13) [mPa·s] | speed of sound (303.15 K, m1 = 1.13) [m/s] | viscosity (308.15 K, m1 = 1.13) [mPa·s] | speed of sound (308.15 K, m1 = 1.13) [m/s] | viscosity (313.15 K, m1 = 1.13) [mPa·s] | speed of sound (313.15 K, m1 = 1.13) [m/s] | viscosity (318.15 K, m1 = 1.13) [mPa·s] | speed of sound (318.15 K, m1 = 1.13) [m/s] | viscosity (323.15 K, m1 = 1.13) [mPa·s] | speed of sound (323.15 K, m1 = 1.13) [m/s] | further results
O=C[C@H](O)[C@@H](O)[C@H](O)[C@H](O)CO [D-glucose] + O | 1.489 ± 0.15 | 1564.8 ± 1.4 | 1.278 ± 0.13 | 1574.3 ± 1.3 | 1.147 ± 0.12 | 1582.4 ± 1.3 | 0.9944 ± 0.1 | 1589.1 ± 1.3 | 0.9095 ± 0.091 | 1594.4 ± 1.3 | 0.8291 ± 0.083 | 1598.5 ± 1.4 | mass density (298.15 K, m1 = 1.13): 1065.07 ± 0.12 kg/m3; mass density (303.15 K, m1 = 1.13): 1063.3 ± 0.11 kg/m3; mass density (308.15 K, m1 = 1.13): 1061.36 ± 0.1 kg/m3; mass density (313.15 K, m1 = 1.13): 1059.24 ± 0.1 kg/m3; mass density (318.15 K, m1 = 1.13): 1056.98 ± 0.1 kg/m3; mass density (323.15 K, m1 = 1.13): 1054.25 ± 0.12 kg/m3
OC[C@H]1O[C@@](CO)(O[C@H]2O[C@H](CO)[C@@H](O)[C@H](O)[C@H]2O)[C@@H](O)[C@@H]1O [D-sucrose] + O | 2.716 ± 0.27 | 1607.9 ± 1.4 | 2.376 ± 0.24 | 1615.6 ± 1.3 | 2.075 ± 0.21 | 1621.9 ± 1.3 | 1.795 ± 0.18 | 1627 ± 1.3 | 1.587 ± 0.16 | 1630.8 ± 1.3 | 1.394 ± 0.14 | 1633.3 ± 1.4 | mass density (298.15 K, m1 = 1.27): 1127.37 ± 0.18 kg/m3; mass density (303.15 K, m1 = 1.27): 1125.37 ± 0.17 kg/m3; mass density (308.15 K, m1 = 1.27): 1123.2 ± 0.17 kg/m3; mass density (313.15 K, m1 = 1.27): 1120.73 ± 0.17 kg/m3; mass density (318.15 K, m1 = 1.27): 1118.18 ± 0.16 kg/m3; mass density (323.15 K, m1 = 1.27): 1115.44 ± 0.17 kg/m3
